Source: the supplement of paper PMC10307832

What was measured:
Experiment in all cases: relative viability (nuclei count vs DMSO), 5 days (fraction); higher = more cells survive
IMD-0354 + Decitabine = compound: O=C(Nc1cc(C(F)(F)F)cc(C(F)(F)F)c1)c1cc(Cl)ccc1O [IMD-0354] + Nc1ncn([C@H]2C[C@H](O)[C@@H](CO)O2)c(=O)n1 [Decitabine] (partner 2 µM)
Outline: (§1)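 Nuclei were stained with Hoechst during a one-step fixation (final 0.05% Triton X-100, 1% formaldehyde, 1 ug/ml Hoechst) carried out 5 days after dosing, then counted on 4× images. The cells, lung cancer lines in 1536-well plates, had been dosed by pin tool the day after seeding with one drug alone or a fixed anchor-drug dose plus five library-drug doses (not always all listed) in √10 steps. Relative viability is the nuclei count in treated wells divided by that in vehicle wells, and each value is the median of duplicate plates.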

IMD-0354 + Alpelisib = compound: O=C(Nc1cc(C(F)(F)F)cc(C(F)(F)F)c1)c1cc(Cl)ccc1O [IMD-0354] + Cc1nc(NC(=O)N2CCC[C@H]2C(N)=O)sc1-c1ccnc(C(C)(C)C(F)(F)F)c1 [Alpelisib] (partner 2 µM)
Outline: as §1

CX-5461 + Dasatinib = compound: Cc1cnc(CNC(=O)c2c(=O)c3ccc(N4CCCN(C)CC4)nc3n3c2sc2ccccc23)cn1 [CX-5461] + Cc1nc(Nc2ncc(C(=O)Nc3c(C)cccc3Cl)s2)cc(N2CCN(CCO)CC2)n1 [Dasatinib] (partner 0.075 µM)
Outline: as §1

IMD-0354 + Luminespib = compound: O=C(Nc1cc(C(F)(F)F)cc(C(F)(F)F)c1)c1cc(Cl)ccc1O [IMD-0354] + CCNC(=O)c1noc(-c2cc(C(C)C)c(O)cc2O)c1-c1ccc(CN2CCOCC2)cc1 [Luminespib] (partner 0.01 µM)
Outline: as §1

Cell Line: UMC-11
- relative viability (IMD-0354 + Decitabine; first compound 0.04 µM): 0.64
- relative viability (IMD-0354 + Decitabine; first compound 0.1265 µM): 0.646
- relative viability (IMD-0354 + Decitabine; first compound 0.4 µM): 0.522
- relative viability (IMD-0354 + Decitabine; first compound 1.265 µM): 0.174
- relative viability (IMD-0354 + Decitabine; first compound 4 µM): 0.176
- relative viability (IMD-0354 + Alpelisib; first compound 0.04 µM): 0.945
- relative viability (IMD-0354 + Alpelisib; first compound 0.1265 µM): 0.973
- relative viability (IMD-0354 + Alpelisib; first compound 0.4 µM): 0.598
- relative viability (IMD-0354 + Alpelisib; first compound 1.265 µM): 0.235
- relative viability (IMD-0354 + Alpelisib; first compound 4 µM): 0.281
- relative viability (CX-5461 + Dasatinib; first compound 0.01 µM): 0.446
- relative viability (CX-5461 + Dasatinib; first compound 0.03162 µM): 0.519
- relative viability (CX-5461 + Dasatinib; first compound 0.1 µM): 0.364
- relative viability (CX-5461 + Dasatinib; first compound 0.3162 µM): 0.39
- relative viability (CX-5461 + Dasatinib; first compound 1 µM): 0.246
- relative viability (IMD-0354 + Luminespib; first compound 0.04 µM): 1.1
- relative viability (IMD-0354 + Luminespib; first compound 0.1265 µM): 0.888
- relative viability (IMD-0354 + Luminespib; first compound 0.4 µM): 0.434
- relative viability (IMD-0354 + Luminespib; first compound 1.265 µM): 0.27
- relative viability (IMD-0354 + Luminespib; first compound 4 µM): 0.273
